The results in this text go back to patent US20260014147A1, “STAT6 DEGRADERS” (Gilead Sciences, Inc., priority 2024, published 2026).

The target of this assay is T1, STAT6 (endogenous, HiBiT-tagged) in HeLa LgBiT clone 4.14 cells (Homo sapiens, UniProt P42226).
T1 construct: These cells express endogenous STAT6; host or cells: HeLa LgBiT clone 4.14
T1 sequence (P42226 1-847): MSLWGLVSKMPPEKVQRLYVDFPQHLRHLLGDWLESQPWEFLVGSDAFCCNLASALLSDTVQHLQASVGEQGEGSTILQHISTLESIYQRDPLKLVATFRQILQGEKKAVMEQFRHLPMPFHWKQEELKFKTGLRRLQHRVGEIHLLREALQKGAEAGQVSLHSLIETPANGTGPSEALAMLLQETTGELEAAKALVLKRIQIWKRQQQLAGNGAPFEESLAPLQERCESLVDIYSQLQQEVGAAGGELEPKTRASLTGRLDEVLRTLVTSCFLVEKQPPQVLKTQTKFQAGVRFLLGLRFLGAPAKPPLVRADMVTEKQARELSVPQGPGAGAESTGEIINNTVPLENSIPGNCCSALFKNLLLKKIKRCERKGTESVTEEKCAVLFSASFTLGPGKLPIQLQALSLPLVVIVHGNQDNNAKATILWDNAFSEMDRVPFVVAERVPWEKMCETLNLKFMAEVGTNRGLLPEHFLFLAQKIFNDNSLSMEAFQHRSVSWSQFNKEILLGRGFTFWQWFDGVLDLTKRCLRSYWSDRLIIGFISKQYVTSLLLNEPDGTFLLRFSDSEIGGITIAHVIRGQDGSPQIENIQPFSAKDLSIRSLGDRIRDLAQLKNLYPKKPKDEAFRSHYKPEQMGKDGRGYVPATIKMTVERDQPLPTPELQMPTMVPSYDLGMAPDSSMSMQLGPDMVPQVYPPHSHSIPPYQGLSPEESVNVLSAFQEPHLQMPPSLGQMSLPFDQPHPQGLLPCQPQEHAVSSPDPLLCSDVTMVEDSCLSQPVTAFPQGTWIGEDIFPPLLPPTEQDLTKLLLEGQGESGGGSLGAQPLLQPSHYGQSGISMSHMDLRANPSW
The assay is described as follows: STAT6 Degrader Assay (HiBiT based, HeLa LgBiT clone 4.14 cells, luminescence, DC50). The class given is cell-based. The conditions noted are these: geometric mean; for Emax: Emax provided for test compounds with <80% Emax (and 2c15), read-out: STAT6 degradation Emax; for DC50: DC50 provided for test compounds with >80% Emax, read-out: STAT6 degradation DC50. In outline: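 Remaining STAT6 is read as NanoBiT luminescence after 0.5 h with Nano-Glo, in HeLa LgBiT clone 4.14 cells expressing endogenous HiBiT-tagged STAT6, following 4-24 h compound incubation at 37 °C. Full degradation is set by 50 µM terfenadine, which kills the cells; degradation plotted against log compound concentration.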
(HiBiT is a short tag that completes a luciferase, so light tracks the accessible tagged protein.)

As for `Cn1c(CN2CCC(c3ccc(C(=O)N4CCC(CN5CCN(c6c(F)cc(NC7CCC(=O)NC7=O)cc6F)CC5)CC4)cc3)CC2)cc2c(-c3ccc4[nH]ncc4c3)ccnc21` (stereo not shown) [Example 2c34, 3-((4-(4-((1-(4-(1-((4-(1H-indazol-5-yl)-1-methyl-1H-pyrrolo[2,3-b]pyridin-2-yl)methyl)-piperidin-4-yl)benzoyl)piperidin-4-yl)methyl)piperazin-1-yl)-3,5-difluorophenyl)amino)piperidine-2,6-dione], the Emax is 70 to 80%. For `COCc1nc2cc(-c3ccnc4c3cc(CN3CCC(c5ccc(C(=O)N6CCC(CN7CCC(N8CCN(c9ccc(NC%10CCC(=O)NC%10=O)cc9F)CC8)C(F)(F)C7)CC6)cc5)CC3)n4C)ccc2[nH]1` (stereo not shown) [Example 2p3, 3-((4-(4-(3,3-difluoro-1-((1-(4-(1-((4-(2-(methoxymethyl)-1H-benzo[d]imidazol-5-yl)-1-methyl-1H-pyrrolo[2,3-b]pyridin-2-yl)methyl)piperidin-4-yl)benzoyl)piperidin-4-yl)methyl)piperidin-4-yl)piperazin-1-yl)-3-fluorophenyl)amino)piperidine-2,6-dione], the DC50 turned out to be 20.6 nM. For the molecule `Cn1c(CN2CCN(c3ccc(C(=O)N4CCC(CN5CCN(c6ccc(NC7CCC(=O)NC7=O)cc6F)CC5)CC4)cc3)CC2)cc2c(-c3ccc(N)nc3)ccnc21` (stereo not shown) [Example 2c39, 3-((4-(4-((1-(4-(4-((4-(6-aminopyridin-3-yl)-1-methyl-1H-pyrrolo[2,3-b]pyridin-2-yl)methyl)piperazin-1-yl)benzoyl)piperidin-4-yl)methyl)piperazin-1-yl)-3-fluorophenyl)amino)piperidine-2,6-dione], the Emax is below 20%. As for `C[C@@H]1CN(c2ccc(NC3CCC(=O)NC3=O)cc2F)CCN1CC1CCN(C(=O)c2ccc(C3CCN(Cc4cc5c(-c6ccc7[nH]ncc7c6)ccnc5n4C)CC3)cc2)CC1` (stereo partly drawn) [Example 2f8, 3-((4-((R)-4-((1-(4-(1-((4-(1H-indazol-5-yl)-1-methyl-1H-pyrrolo[2,3-b]pyridin-2-yl)methyl)-piperidin-4-yl)benzoyl)piperidin-4-yl)methyl)-3-methylpiperazin-1-yl)-3-fluorophenyl)amino)piperidine-2,6-dione], the DC50 was determined as 19.1 nM.

For `CN(C(=O)c1ccc(C2CCN(Cc3cc4c(-c5ccc(N)nc5)ccnc4n3C)CC2)cc1)c1ccc(CC2CCN(c3ccc(NC4CCC(=O)NC4=O)cc3)CC2)cc1` (stereo not shown) [Example 2o1, 4-(1-((4-(6-aminopyridin-3-yl)-1-methyl-1H-pyrrolo[2,3-b]pyridin-2-yl)-methyl)piperidin-4-yl)-N-(4-((1-(4-((2,6-dioxopiperidin-3-yl)amino)phenyl)piperidin-4-yl)methyl)phenyl)-N-methylbenzamide], the Emax was 50 to 60%. Consider `CC(c1cc2c(-c3ccc(N)nc3)ccnc2n1C)N1CCC(c2ccc(C(=O)N3CCC(CN4CCN(c5ccc(N[C@@H]6CCC(=O)NC6=O)cc5F)CC4)CC3)cc2)CC1` (single isomer, unassigned) [Example 2c12], for which the DC50 came out at 17.7 nM.

`Cn1c(CN2CCC(c3ccc(C(=O)N4CCC(CN5CCN(c6nccc(NC7CCC(=O)NC7=O)n6)CC5)CC4)cc3)CC2)cc2c(-c3ccc4[nH]ncc4c3)ccnc21` (stereo not shown) [Example 2k2, 3-((2-(4-((1-(4-(1-((4-(1H-indazol-5-yl)-1-methyl-1H-pyrrolo[2,3-b]pyridin-2-yl)methyl)-piperidin-4-yl)benzoyl)piperidin-4-yl)methyl)piperazin-1-yl)pyrimidin-4-yl)amino)piperidine-2,6-dione]: the Emax was 30 to 40%. For the molecule `C[C@@H]1CN(c2ccc(NC3CCC(=O)NC3=O)cc2F)CCN1CC1CCN(C(=O)c2ccc(C3CCN(Cc4cc5c(-c6ccc(N)nc6)ccnc5n4C)CC3)cc2)CC1` (stereo partly drawn) [Example 2f6, 3-((4-((R)-4-((1-(4-(1-((4-(6-aminopyridin-3-yl)-1-methyl-1H-pyrrolo[2,3-b]pyridin-2-yl)-methyl)-piperidin-4-yl)benzoyl)piperidin-4-yl)methyl)-3-methylpiperazin-1-yl)-3-fluorophenyl)amino)-piperidine-2,6-dione], the DC50 worked out at 38.8 nM. Turning to `C[C@@H](c1cc2c(-c3ccc(N)nc3)ccnc2n1C)N1CCC(c2ccc(C(=O)N3CCC(CN4CCN(c5ccc(NC6CCC(=O)NC6=O)cc5C(F)(F)F)CC4)CC3)cc2)CC1` (stereo partly drawn) [Example 2i7, 3-((4-(4-((1-(4-(1-((S)-1-(4-(6-aminopyridin-3-yl)-1-methyl-1H-pyrrolo[2,3-b]pyridin-2-yl)-ethyl)-piperidin-4-yl)benzoyl)piperidin-4-yl)methyl)piperazin-1-yl)-3-(trifluoromethyl)phenyl)amino)-piperidine-2,6-dione], the Emax lay in the range of 40 to 50%.

Consider `Cn1c(CN2CCC(c3ccc(C(=O)N4CCC(CN5CCN(Cc6ccc(NC7CCC(=O)NC7=O)cc6F)CC5)CC4)cc3)CC2)cc2c(-c3ccc(N)nc3)ccnc21` (stereo not shown) [Example 2s2, 3-((4-((4-((1-(4-(1-((4-(6-aminopyridin-3-yl)-1-methyl-1H-pyrrolo[2,3-b]pyridin-2-yl)methyl)piperidin-4-yl)benzoyl)piperidin-4-yl)methyl)piperazin-1-yl)methyl)-3-fluorophenyl)amino)piperidine-2,6-dione], for which the Emax lay within 40 to 50%.

Turning to `Cn1c(CN2CCC(c3ccc(C(=O)N4CCC(CN5CCN(c6ccc(C(=O)NC7CCC(=O)NC7=O)nn6)CC5)CC4)cc3)CC2)cc2c(-c3ccc4[nH]ncc4c3)ccnc21` (stereo not shown) [Example 2d1, 6-(4-((1-(4-(1-((4-(1H-indazol-5-yl)-1-methyl-1H-pyrrolo[2,3-b]pyridin-2-yl)methyl)-piperidin-4-yl)benzoyl)piperidin-4-yl)methyl)piperazin-1-yl)-N-(2,6-dioxopiperidin-3-yl) pyridazine-3-carboxamide], the Emax was in the range of 50 to 60%. Turning to `Cc1cc(C(=O)N2CCn3nc(CN4CCC(c5ccc(NC6CCC(=O)NC6=O)cc5F)CC4)cc3C2)cnc1C1=CCN(Cc2cc3c(-c4ccc(N)nn4)ccnc3n2C)CC1` (stereo not shown) [Example 2c48, 3-((4-(1-((5-(1′-((4-(6-aminopyridazin-3-yl)-1-methyl-1H-pyrrolo[2,3-b]pyridin-2-yl)methyl)-3-methyl-1′, 2′, 3′, 6′-tetrahydro-[2,4′-bipyridine]-5-carbonyl)-4,5,6,7-tetrahydropyrazolo[1,5-a]pyrazin-2-yl)methyl)piperidin-4-yl)-3-fluorophenyl)amino)piperidine-2,6-dione], the Emax was below 20%. Turning to `C[C@@H](c1cc2c(-c3ccc(N)nc3)ccnc2n1C)N1CCC(c2ccc(C(=O)N3CCN(CC4CCN(c5ccc(NC6CCC(=O)NC6=O)cc5F)CC4)CC3)cc2)CC1` (stereo partly drawn) [Example 2g63, 3-((4-(4-((4-(4-(1-((S)-1-(4-(6-aminopyridin-3-yl)-1-methyl-1H-pyrrolo[2,3-b]pyridin-2-yl)ethyl)piperidin-4-yl)benzoyl)piperazin-1-yl)methyl)piperidin-1-yl)-3-fluorophenyl)amino)piperidine-2,6-dione], the DC50 worked out at 48.3 nM. As for `CN(C(=O)c1ccc(C2CCN(Cc3cc4c(-c5ccc6[nH]ncc6c5)ccnc4n3C)CC2)cc1)c1ccc(C2CCN(c3ccc(NC4CCC(=O)NC4=O)cc3F)CC2)cc1` (stereo not shown) [Example 2j1, 4-(1-((4-(1H-indazol-5-yl)-1-methyl-1H-pyrrolo[2,3-b]pyridin-2-yl)methyl)piperidin-4-yl)-N-(4-(1-(4-((2,6-dioxopiperidin-3-yl)amino)-2-fluorophenyl)piperidin-4-yl)phenyl)-N-methylbenzamide], the Emax is 70 to 80%.

`COCc1nc2cc(-c3ccnc4c3cc(CN3CCC(c5ccc(C(=O)N6CCn7nc(CN8CCC(c9ccc(NC%10CCC(=O)NC%10=O)cc9F)C(F)(F)C8)cc7C6)cc5)CC3)n4C)ccc2[nH]1` (stereo not shown) [Example 2q12, 3-((4-(3,3-difluoro-1-((5-(4-(1-((4-(2-(methoxymethyl)-1H-benzo[d]imidazol-5-yl)-1-methyl-1H-pyrrolo[2,3-b]pyridin-2-yl)methyl)piperidin-4-yl)benzoyl)-4,5,6,7-tetrahydropyrazolo[1,5-a]pyrazin-2-yl)methyl)piperidin-4-yl)-3-fluorophenyl)amino)piperidine-2,6-dione]: the DC50 stood at 12.9 nM.

Regarding `C[C@H]1CN(c2ccc(NC3CCC(=O)NC3=O)cc2F)CCN1CC1CCN(C(=O)c2ccc(C3CCN(Cc4cc5c(-c6ccc(N)nc6)ccnc5n4C)CC3)cc2)CC1` (stereo partly drawn) [Example 2f3, 3-((4-((S)-4-((1-(4-(1-((4-(6-aminopyridin-3-yl)-1-methyl-1H-pyrrolo[2,3-b]pyridin-2-yl)methyl)piperidin-4-yl)benzoyl)piperidin-4-yl)methyl)-3-methylpiperazin-1-yl)-3-fluorophenyl)amino)-piperidine-2,6-dione], the Emax is 20 to 30%.

One may read the Emax as the size of the effect at its maximum, as opposed to the concentration needed. What is called DC50 is the midpoint of the concentration-degradation curve.
